# Reference: article PMC4872784 (Oncotarget, 2016)
# Where two headings read alike, the source gives them in different places.
# Assays:
# RS4;11 cells = assay: alamarBlue cytotoxicity assay, 48h; type: cell-based, human; conditions: RS4;11 (B-ALL), RPMI + 10% FBS
# Method: (§1) Following subtraction of background fluorescence from all wells, fluorescence of drug-treated cells was normalized to that of vehicle (<0.5% DMSO)-treated cells to determine the effect of each drug concentration on viability. Each cell line was tested in triplicate and in at least three independent experiments. IC50 (concentration that inhibits cell growth by 50%) values were calculated using CompuSyn software (ComboSyn, Paramus, NJ). […] In addition several cell lines were initially cultured and tested in alternative media (Supplementary Table S2). […] Colony counts were normalized to vehicle-treated controls (100%). Three independent experiments were performed.
# (§2) In most experiments, cytotoxicity was assessed using alamarBlue assays (Life Technologies, Grand Island, NY). In experiments using NAC and DFO, which can interfere with alamarBlue assay performance, Trypan Blue dye exclusion was used instead. […]
# (§3) experiments performed in triplicate. […] Age refers to age […]
# (§4) at the time of leukemia diagnosis of the patient from whom the cell line was derived. (–) Indicates information unavailable.
# (§5) *Cell lines with FLT3/ITD mutations.
# (§6) *The MV-4–11 cell line was derived from a patient with a biphenotypic B-myelomonocytic leukemia; K562 was derived […]
# (§7) 1A. p53 status was obtained from http://cancer.sanger.ac.uk/cell_lines/cbrowse/all and http://p53.free.fr/Database/Cancer_ cell_lines/Leukemia_cancer. html. WT: wild type. Mut: mutant. SM: single mutation. DM: double mutation. MM: multiple mutations. Fs: Frameshift mutation. Null: protein expression undetectable.
# Kasumi-2 cells = assay: alamarBlue cytotoxicity assay, 48h; type: cell-based, human; conditions: Kasumi-2 (B-ALL), RPMI + 10% FBS
# Method: as §1, §2, §3, §4, §5, §6, §7
# KG-1a cells = assay: alamarBlue cytotoxicity assay, 48h; type: cell-based, human; conditions: KG-1a (AML), RPMI + 10% FBS
# Method: as §1, §2, §3, §4, §5, §6, §7
# CCRF-CEM cells = assay: alamarBlue cytotoxicity assay, 48h; type: cell-based, human; conditions: CCRF-CEM (T-ALL), RPMI + 10% FBS
# Method: as §1, §2, §3, §4, §5, §6, §7
# SEM cells = assay: alamarBlue cytotoxicity assay, 48h; type: cell-based, human
# Method: as §1, §2, §3, §4, §5, §6, §7
# MOLT-16 cells = assay: alamarBlue cytotoxicity assay, 48h; type: cell-based, human; conditions: MOLT-16 (T-ALL), RPMI + 10% FBS
# Method: as §1, §2, §3, §4, §5, §6, §7
# MV-4-11 cells = assay: alamarBlue cytotoxicity assay, 48h; type: cell-based, human; conditions: RPMI + 10% FBS
# Method: as §1, §2, §3, §4, §5, §6, §7
# U937 cells = assay: alamarBlue cytotoxicity assay, 48h; type: cell-based, human; conditions: RPMI + 10% FBS
# Method: as §1, §2, §3, §4, §5, §6, §7
# NALM-6 cells = assay: alamarBlue cytotoxicity assay, 48h; type: cell-based, human; conditions: NALM-6 (B-ALL), RPMI + 10% FBS
# Method: as §1, §2, §3, §4, §5, §6, §7
# primary B-ALL case #109 = assay: intravenous B-ALL primagraft model
# Method: Mice were weighed weekly and tumors measured at least twice weekly. […] Mice were euthanized when tumors reached an estimated 2000mg. […] Mice were weighed weekly and observed daily for clinical signs of severe leukemia.
# Highly immunodeficient NSG mice, obtained originally from Jackson Laboratory (Bar Harbor, ME), were bred and housed in the UMSOM animal facilities, and handled in a laminar flow hood under aseptic conditions. All experiment procedures and animal care were in compliance with the NIH guidelines for the Care and Use of Laboratory Animals and approved by the UMSOM Institutional Animal Care and Use Committee. Drugs were formulated in Tween 80:ethanol (7:3, v:v) and diluted 1:10 in filtered deionized water immediately before administration. […] Mice were monitored daily and euthanized when tumors reached an estimated mass of 2000mg (using the formula: [length x width^2]/2, assuming density = 1 mg/mm^3) [56]. […] Mice were euthanized for clinical signs of severe leukemia or other severe distress [52].
# Mice were weighed weekly and observed daily for clinical signs of severe
# MOLM14 cells [1] = assay: viable cell counts via Trypan Blue dye exclusion, 48h; type: cell-based, human
# Method: (§8) A. Quantification of the percentage of early apoptotic cells (Annexin-V+/7-AAD-) from three independent experiments in which cells were stained for apoptosis with 7-AAD and Annexin-V then analyzed by flow cytometry. […] C. […] 16h after addition of drugs, cells were washed and analyzed by flow cytometry for CM-H2DCFDA fluorescence (indicating total ROS generation) in the FL1 channel. Mean Fluorescence Intensity (MFI) was normalized to that of vehicle control (0.5% DMSO) with no pretreatment. […] Viable cell counts, obtained via Trypan Blue dye exclusion, were normalized to vehicle (0.02% DMSO)-treated samples +/– pretreatment.
# In most experiments, cytotoxicity was assessed using alamarBlue assays (Life Technologies, Grand Island, NY). In experiments using NAC and DFO, which can interfere with alamarBlue assay performance, Trypan Blue dye exclusion was used instead.
# MOLM14 cells [2] = assay: total ROS generation (CM-H2DCFDA flow cytometry); type: cell-based, human; conditions: 16h
# Method: as §8
# Cells were preloaded with 5 μM 5-(and-6)-chloromethyl-2′,7′-dichlorodihydrofluorescein diacetate (CM-H2DCFDA, Life Technologies) in PBS (30min, 37°C), then washed before drug treatment. Following 16h incubation with drugs, cells were analyzed by flow cytometry.
# MOLM14 xenograft = assay: subcutaneous MOLM14 AML xenograft; conditions: for average tumor mass less than vehicle-treated tumors: day 21
# Method: CBCs were performed on day 23 (Supplementary Figure S8). Mice were euthanized when tumors reached an estimated 2000mg. […] B. Percent of Day 0 body weight. […] C. Kaplan-Meier survival analysis. […] D. Percent of Day 0 body weight.
# MOLM14 or KOPN8 cells = assay: drug combinations, alamarBlue 48h, combination indices; conditions: for effect of addition on cytotoxicity of ARA, DOX, ETO, MID, LES, SOR: equipotency ratio based on IC50s, 48h
# Method: Supplementary Figure S10: Drug combinations against MOLM14. MOLM14 cells were treated with a range of concentrations
# experiment was performed three times in triplicate, and error bars represent the SEM.
# Combination indices (CI) were computed for each drug combination using CompuSyn software, based on the Median Effect
# Principle and the CI theorem of Chou-Talalay, wherein CI = 1 indicates additivity, CI < 1 synergism, and CI > 1 antagonism. Data are
# Supplementary Figure S11: Drug combinations against KOPN8. KOPN8 cells were treated with a range of concentrations
# Each experiment was performed at least three times in triplicate, and error bars represent the SEM.
# MOLM14 cells [3] = assay: alamarBlue cytotoxicity assay, 48h; type: cell-based, human; conditions: for IC50: MOLM14 (AML), 48h, RPMI + 10% FBS
# Method: as §1, §2, §3, §4, §5, §6
# as §7, with “undetectable. […]” for “undetectable.”
# (§9) measured via alamarBlue assay. […]
# KOPN8 cells = assay: alamarBlue cytotoxicity assay, 48h; type: cell-based, human; conditions: RPMI + 10% FBS
# Method: as §1, §2, §3, §4, §5, §6
# as §7, with “undetectable. […]” for “undetectable.”
# as §9
# [4] = four 5-day cycles ART-838 40 mg/kg/d
# [5] = four 5-day cycles AS 150 mg/kg/d
smiles,measurement,setting,value
"C[C@@H]1CCC2[C@@H](C)[C@@H](CC(COP(=O)(Oc3ccccc3)Oc3ccccc3)C[C@H]3O[C@@H]4O[C@@]5(C)CCC6[C@H](C)CCC([C@H]3C)[C@]64OO5)O[C@@H]3O[C@@]4(C)CCC1[C@@]23OO4 (stereo partly drawn) [ART-838, artemisinin-derived trioxane diphenylphosphate dimer 838]",IC50,RS4;11 cells,62 ± 23 nM
same,IC50,Kasumi-2 cells,26 ± 4 nM
same,IC50,KG-1a cells,547 ± 147 nM
same,IC50,CCRF-CEM cells,483 ± 195 nM
same,IC50,"SEM cells; SEM (B-ALL), 48h, RPMI + 10% FBS, read-out: IC50",29 ± 6 nM
same,-Fold Difference in IC50 between media,"SEM cells; SEM, DMEM + 10% FBS vs RPMI+10% FBS",9.2
same,IC50,"SEM cells; SEM, original medium DMEM + 10% FBS, read-out: IC50 in original medium",268 nM
same,IC50,MOLT-16 cells,10 ± 2 nM
same,IC50,MV-4-11 cells; MV-4-11 (AML/B-ALL),25 ± 5 nM
same,IC50,U937 cells; U937 (AML),10 ± 1 nM
same,IC50,NALM-6 cells,16 ± 5 nM
same,body weight loss following treatment,primary B-ALL case #109; [4],No dose-limiting body weight loss
same,extension of mean survival time,primary B-ALL case #109; [4],20 days
same,prolongation of mean survival time,primary B-ALL case #109; [4],55%
same,Mean time to severe clinical signs of leukemia (surrogate for survival),"primary B-ALL case #109; four 5-day cycles ART-838 40 mg/kg/d oral gavage, vehicle 37",57
same,Mean time to severe clinical signs of leukemia (surrogate for survival),"primary B-ALL case #109; second experiment: two 5-day cycles ART-838 50 mg/kg/d, days 1 and 29, vehicle 28",47
same,fold resistance to growth inhibition after DFO pretreatment,"MOLM14 cells [1]; MOLM14, DFO 11 μM pretreatment",3 fold
same,fold resistance to growth inhibition after NAC pretreatment,"MOLM14 cells [1]; MOLM14, NAC 25 μM pretreatment",not increased
same,total cellular ROS levels,MOLM14 cells [2]; ART-838 0.1 μM,significantly increased total cellular ROS levels
same,average tumor mass less than vehicle-treated tumors,MOLM14 xenograft; two 5-day cycles ART-838 50 mg/kg/d oral gavage,83%
same,complete and differential blood cell counts,"MOLM14 xenograft; tumor-bearing NSG mice, day 23, after two 5-day cycles ART-838 50 mg/kg/d",within the normal range
same,"interaction with kinase inhibitors MID, LES, SOR",MOLM14 or KOPN8 cells; combination indices,combined synergistically with all three kinase inhibitors
same,"effect of addition on cytotoxicity of ARA, DOX, ETO, MID, LES, SOR",MOLM14 or KOPN8 cells,enhanced the cytotoxicity of all six tested drugs
same,IC90,MOLM14 cells [3]; MOLM14,100 nM
same,IC50,MOLM14 cells [3],25 nM
same,growth inhibition by 48h,"MOLM14 cells [3]; MOLM14, 0.1 μM ART-838, alamarBlue",90-99%
same,IC50,KOPN8 cells; KOPN8 (B-ALL),12 ± 2 nM
"C[C@H]1[C@H](OC(=O)CCC(=O)O)O[C@@H]2O[C@@]3(C)CC[C@H]4[C@H](C)CC[C@@H]1[C@@]24OO3 [AS, artesunate]",IC50,RS4;11 cells; Homo sapiens,5420 ± 1890 nM
same,IC50,Kasumi-2 cells; Homo sapiens,6650 ± 340 nM
same,IC50,KG-1a cells; Homo sapiens,6260 ± 300 nM
same,IC50,CCRF-CEM cells; Homo sapiens,7340 ± 1240 nM
same,IC50,"SEM cells; Homo sapiens, SEM (B-ALL), 48h, RPMI + 10% FBS, read-out: IC50",4080 ± 1180 nM
same,IC50,"SEM cells; Homo sapiens, SEM, original medium DMEM + 10% FBS, read-out: IC50 in original medium",18300 nM
same,IC50,MOLT-16 cells; Homo sapiens,1630 ± 70 nM
same,IC50,"MV-4-11 cells; Homo sapiens, MV4-11, MV-4-11 (AML/B-ALL)",796 ± 96 nM
same,IC50,"U937 cells; Homo sapiens, U-937, U937 (AML)",1060 ± 170 nM
same,IC50,NALM-6 cells; Homo sapiens,5190 ± 430 nM
same,body weight loss following treatment,primary B-ALL case #109; [5],No dose-limiting body weight loss
same,extension of mean survival time,primary B-ALL case #109; [5],19 days
same,prolongation of mean survival time,primary B-ALL case #109; [5],51%
same,Mean time to severe clinical signs of leukemia (surrogate for survival),"primary B-ALL case #109; four 5-day cycles AS 150 mg/kg/d oral gavage, vehicle 37",56
same,Mean time to severe clinical signs of leukemia (surrogate for survival),"primary B-ALL case #109; second experiment: two 5-day cycles AS 200 mg/kg/d, days 1 and 29, vehicle 28",43
same,IC50,"MOLM14 cells [1]; Homo sapiens, MOLM-14, MOLM14, 48h, Pre-Treatment: CTRL, unit inferred, read-out: IC50",885 ± 57 nM
same,total cellular ROS levels,MOLM14 cells [2]; AS 5 μM,significantly increased total cellular ROS levels
same,average tumor mass less than vehicle-treated tumors,MOLM14 xenograft; two 5-day cycles AS 200 mg/kg/d oral gavage,44%
same,interaction with SOR,MOLM14 or KOPN8 cells; combination indices,additive effects
same,"effect of addition on cytotoxicity of ARA, DOX, ETO, MID, LES, SOR",MOLM14 or KOPN8 cells,enhanced the cytotoxicity of all six tested drugs
same,inhibition at 5 µM,"MOLM14 cells [3]; Homo sapiens, MOLM-14, 48 h, MOLM14, 5 μM AS, alamarBlue, read-out: growth inhibition by 48h",90 to 99%
same,IC90,"MOLM14 cells [3]; Homo sapiens, MOLM-14, MOLM14",5000 nM
same,IC50,"MOLM14 cells [3]; Homo sapiens, MOLM-14",825 nM
same,IC50,"KOPN8 cells; Homo sapiens, KOPN-8, KOPN8 (B-ALL)",459 ± 49 nM
